Where a name gives a salt, the structure may show the parent alone.
Tests used:
[1] = test system: CD-1 mice; assay: Tail suspension test (TST); assay type: in vivo; details: 7th day, 30 minutes after oral treatment, 6 minute test, measured in the last 4 minutes; kefir fermentation product 150 mg/kg, peptides 10 mg/kg; average±standard deviation
Procedure: Refer to the steps of Example 2, the CD-1 mice are randomly divided into five groups and raised under the following conditions: • the first group: take distilled water orally; • the second group: take 150 mg/kg kefir fermentation product orally; • the third group: take the peptide 1 (10 mg/kg) disclosed in Example 1 orally, and the amino acid sequence is SEQ ID No: 1; • the fourth group: take the peptide 2 (10 mg/kg) disclosed in Example 1 orally, and the amino acid sequence is SEQ ID No: 2; and • the fifth group 5: take the peptide 3 (10 mg/kg) disclosed in Example 1 orally, and the amino acid sequence is SEQ ID No: 3.
When the mice in each of the groups are raised to the 7th day, after 30 minutes of treatment according to the following conditions, a tail suspension test is carried out for 6 minutes, and the immobility time is measured in the last 4 minutes. The results are shown in FIG. 5, wherein the immobility time refers to a period of time in which the mice are suspended and completely still.

[2] = test system: TrkB; assay: TrkB and p-TrkB protein in hippocampal tissues, western blot; assay type: in vivo, mice; details: oral treatment for 8 days, compared with first group (distilled water)
Procedure: (§1) Take 5-week-old CD-1 mice, provide standard laboratory animal feed (Altromin, Germany) and distilled water (dH2O), and keep them for 12 hours at 22-24° C. for light/dark cycles. Before starting the test, each group of mice are raised in an experimental animal room for 1 week to adapt to the environment, and then the mice are randomly divided into 4 groups, and the mice in each of the groups are treated and raised for 8 days (referred to as the first day of rearing to the eighth day of rearing) according to the following conditions: • the first group: take distilled water orally; • the second group: take 150 mg/kg milk powder orally; • the third group: take 150 mg/kg kefir fermentation product orally; and • the fourth group: take 10 mg/kg drug trazodone hydrochloride orally.
(§2) After the test, the mice in each of the groups are anesthetized and their hippocampal tissues are isolated, and frozen and preserved for use in subsequent examples.
(§3) Expressions of protein and mRNA in the hippocampal tissues of the mice in each of the groups in Example 2 are assessed by quantitative RT-PCR method and western blot analysis, and the results are shown in FIG. 6 and FIG. 7, respectively.

[3] = test system: CD-1 mice; assay: Forced swimming test (FST); assay type: in vivo; details: 7th day of rearing, 30 minutes after oral treatment, testing time 6 minutes; kefir fermentation product 150 mg/kg, trazodone hydrochloride 10 mg/kg; average±standard deviation
Procedure: as §1
The mice in each of the groups of Example 2 are treated for 30 minutes according to the above conditions on the 7th day of rearing, and then a swimming test is carried out, testing time is 6 minutes. Movement and immobility time are measured and analyzed with a camera. The results are shown in FIG. 4, wherein the immobility time is a period of time without active movement but only floating in the water; the movement time is a period of time with active movement or circular movement.

[4] = test system: CD-1 mice; assay: Open field test (OFT); assay type: in vivo; details: 8th day of rearing, 30 minutes after oral treatment, 5 minutes in open field; compared with first group (distilled water)
Procedure: as §1
The mice in each of the groups in Example 2 are treated according to the above conditions for 30 minutes on the 8th day of rearing, and then an open field test is carried out. Specifically, the mice in each of the groups are first placed in an open field (45×45×40 cm) for 5 minutes, their travel paths and travel speeds are observed respectively, and the time it takes to reach the centers and the time spent at a fixed position are calculated.

[5] = test system: BDNF (brain-derived neurotrophic factor); assay: BDNF mRNA expression in hippocampal tissues, quantitative RT-PCR; assay type: in vivo, mice; details: oral treatment for 8 days; compared with first group (distilled water)
Procedure: as §1, §2, §3

[6] = test system: CD-1 mice; assay: Elevated plus maze test (EPMT); assay type: in vivo; details: 7th day of rearing, 6 hours after oral treatment, 5 minutes observed; compared with first group (distilled water); 150 mg/kg milk powder or kefir fermentation product, 10 mg/kg trazodone hydrochloride
Procedure: as §1
The mice in each of the groups of Example 1 are treated for 6 hours according to the above conditions on the 7th day of rearing, and then an elevated plus maze test is performed, and paths of the mice in each of the groups within 5 minutes are observed with a camera. The results are shown in FIGS. 2A to 2D, and the time of the mice in each of the groups spent on open arms or closed arms in the elevated plus maze is analyzed, and the results are shown in FIG. 2E to FIG. 2H.

[7] = test system: Erk1/2; assay: Erk1/2 and p-Erk1/2 protein in hippocampal tissues, western blot; assay type: in vivo, mice; details: oral treatment for 8 days, compared with first group (distilled water)
Procedure: as §1, §2, §3

Molecule: peptide 3: KLHLPLPLVQSWM, SEQ ID No: 3; peptide isolated from kefir fermentation product, can also be chemically synthesized (artificiall obtained)
- immobility time in tail suspension test [1]: 1.8 ± 0.3 min
- movement time in tail suspension test [1]: 2.2 ± 0.3 min

Molecule: O=c1n(CCCN2CCN(c3cccc(Cl)c3)CC2)nc2ccccn12 [trazodone hydrochloride]
- expression level of total TrkB protein in hippocampal tissues [2]: have not change significantly
- phosphorylation status p-TrkB/TrkB in hippocampal tissues ([2]; P<0.05): increases significantly
- immobility time in swimming test [3]: 0.9 ± 0.2 min
- movement time in swimming test [3]: 3.1 ± 0.3 min
- movement distance in an open field [4]: move a longer distance
- movement speed in an open field [4]: move faster
- time spent at a fixed position in an open field [4]: spend less time at a certain fixed position
- expression of BDNF mRNA in hippocampal tissues [5]: significantly improved
- paths of the mice in the elevated plus maze (movement to the open arms) [6]: move to the open arms
- expression level of total Erk1/2 protein in hippocampal tissues [7]: have not change significantly
- phosphorylation status p-Erk1/2/Erk1/2 in hippocampal tissues ([7]; P<0.05): increases significantly

Molecule: peptide 2: YQEPVLGPVRGPFPI, SEQ ID No: 2; the kefir peptide of the invention, isolated from kefir fermentation product (artificiall obtained)
- immobility time in tail suspension test [1]: 1.0 ± 0.2 min
- movement time in tail suspension test [1]: 3.0 ± 0.2 min
